Laboratory results reported in patent US20150017093A1, “RADIOLABELED BILE ACIDS AND BILE ACID DERIVATIVES” (Aarhus Universitet, priority 2012, published 2015).
“Also recorded” adds a separate entry of the source.

How the values were obtained:
[1] = cited from earlier work
[2] = Dynamic ^11C—CSar PET/CT in patients with cholestasis; format: in vivo, human; settings: patient with BRIC-1 cholestasis; intravenous infusion
Source text: Two dynamic PET/CT studies in humans have been performed; one in a patient with inherited cholestasis and the other in a patient with drug-induced cholestasis. FIG. 4 illustrates the findings in the patient with inherited cholestasis; a person diagnosed with BRIC-1 (benign recurrent intrahepatic cholestasis), who was examined during a cholestatic episode with severe pruritus, hyperbilirubinemia and high plasma bile acid concentrations. […] Images from the second patient show similar changes.

[3] = Plasma free fraction by ultrafiltration; format: in vitro ADME; settings: female, Danish Landrace and Yorkshire cross-breed, pig
Method: The plasma free fraction of ^11C—CSar was determined in plasma samples collected prior to tracer administration in all three pigs; moreover, plasma was collected 10 seconds after end of cholyltaurine infusion in Pig 1, i.e. before the ^11C—CSar administration. The plasma samples were mixed with aliquots of ^11C—CSar, pipetted into ultrafiltration units (Pall Nanosep Centrifugal Device, Cut-off 30,000 D, Sigma-Aldrich) and centrifuged at room temperature (10 min at 12,000 rpm). Radioactivity in plasma and ultrafiltrates were counted in the well counter. Filter retention of the tracer was determined using sodium phosphate buffer solution (35 mM; pH 7.2). The free fraction was calculated as the ratio of radioactivity concentration in the ultrafiltrate corrected for filter retention to the total radioactivity concentration in plasma.

[4] = Whole-body PET/CT biodistribution and dosimetry (OLINDA/EXM), Pig 2; format: in vivo; settings: for Absorbed dose estimate / Effective dose: Pig 2 (40 kg) extrapolated to 74-kg human; for Effective dose: ICRP 60
Method: For the biodistribution study, ^11C—CSar was administrated intravenously in Pig 2 followed by five whole-body PET scans with one minute between scans and with progressive increase of scan durations per bed-position, i.e. 1, 2, 3, 4 and 5 min, respectively. […] Other source organs (gallbladder, stomach, small intestines, and kidneys) had non-uniform radioactivity distribution and for these organs, the total activity was estimated using a large VOI encompassing all accumulated radioactivity. For each source organ, the time course of the non-decay-corrected total radioactivity was generated. Data were extrapolated from pig (40 kg) to human (74 kg) and recalculated into time courses of fractions of injected dose (% ID). Residence times were computed as the trapezoidal sum of the time course of % ID assuming that the radioactivity decayed only by physical decay after the last scan. Residence time for the rest of the body was calculated as the total body residence time (without voiding) minus the sum of the residence times from the source organs. The residence times were entered into OLINDA/EXM 1.0 (Stabin M G, Sparks R B, Crowe E. OLINDA/EXM: The second-generation personal computer software for internal dose assessment in nuclear medicine. J Nucl Med. 2005; 46:1023-1027) to compute absorbed doses using the male reference phantom and to obtain effective dose values according to ICRP 60.

[5] = tested on: transhepatic transport of ^11C—CSar; settings: Pig 1
Method: Pigs 1 and 2 underwent 90-min dynamic PET/CT recordings (list-mode) using intravenous administration of 400 MBq ^11C—CSar. […] In Pig 2, a second ^11C—CSar administration was given to determine the biodistribution of the tracer by means of whole-body PET/CT recordings. In both pigs, at least 6 half-lives of the ^11C-isotope (half-live: 20.4 min) were allowed to pass between tracer administrations.
The decay-corrected dynamic PET data were reconstructed using the iterative TrueX algorithm (3 iterations, 21 subsets) and post-filtered using a 3 mm Gaussian filter yielding 3D-images of 168×168×109 voxels. Time-activity curves (TACs) were generated from volumes of interest (VOIs) drawn in liver tissue, intrahepatic bile ducts, and choledochus using fused PET/CT images.

[6] = Stability of the tracer in its final formulation; format: physicochemical; settings: up to 2.5 h after the end of the synthesis
Method: The three-step radiosynthesis provided 0.56-1.09 GBq of ^11C—CSar (5) with a radiochemical yield of 13±3% (mean±SD; n=7, decay-corrected) and with radiochemical purity >99% within 40 min. The radiochemical yield of the intermediate ^11C-cholylsarcosine methyl ester 4 was approximately 20% and the deprotection proceeded with full conversion to give ^11C—CSar exclusively.

[7] = Dynamic PET/CT with arterial blood sampling after intravenous ^11C—CSar in pigs; format: in vivo, pig
Method: Three pigs (3-month old female Danish Landrace and Yorkshire cross-breed; body weight 35-40 kg) were fasted for 18 h with free access to water. Each animal was premedicated with midazolam and s-ketamine, anaesthetized with a mixture of midazolam, s-ketamine and propofol, and mechanically ventilated as previously described (Sørensen M. Munk O L, Mortensen F V, et al. Hepatic uptake and metabolism of galactose can be quantified in vivo by 2-[^18F]fluoro-2-deoxy-galactose positron emission tomography. Am J Physiol Gastrointest Liver Physiol. 2008; 295:G27-G36). The animal was placed on a thermostatically-controlled heating blanket, keeping the rectal temperature 38.5-39.5° C. By adjusting the mechanical respiration, arterial blood pCO2, pO2, and pH were kept between 5.3-7.2 kPa, 12-25 kPa, and 7.35-7.45, respectively. Blood glucose was 5.0-6.7 mM. Catheters (Cordis) were inserted into the femoral vein and artery for intravenous administrations and blood sampling, respectively. After completion of the experiment, the animal was euthanized with an overdose of pentobarbital (100 mg/kg).
For PET/CT studies, the pig was placed on the back in a Siemens Biograph 64 Truepoint PET/CT camera with a 21 cm transaxial PET field-of-view. A CT scan (250 effective mAs with CAREDose4D, 120 kV, pitch 1.0, slice thickness 2.0 mm) was performed for definition of anatomical structures and attenuation correction of the PET recordings.
During the dynamic PET recordings of Pig 1 and 2, blood samples (0.5 mL) were collected from the femoral artery at 12×5, 6×10, 6×30, 5×60, 8×600 seconds. The radioactivity concentrations in the samples were measured in a well counter (Packard Biosciences) that was cross-calibrated to the PET camera. Additional blood samples were collected 2, 5, 10, 20, 40, 60, and 90 min after tracer administration for determination of ^11C-metabolites in plasma.

[8] = cholyltaurine pretreatment vs. without

## C[C@H](CCC(=O)N(C)CC(=O)O)[C@H]1CC[C@H]2[C@@H]3[C@H](O)C[C@@H]4C[C@H](O)CC[C@]4(C)[C@H]3C[C@H](O)[C@]12C [CSar, N-methyl-cholylglycine]
[1]
  toxicity to humans: non-toxic
[1]; humans
  biotransformation during enterohepatic circulation: without hepatic or intestinal biotransformation

## C[C@H](CCC(=O)N([11CH3])CC(=O)O)[C@H]1CC[C@H]2[C@@H]3[C@H](O)C[C@@H]4C[C@H](O)CC[C@]4(C)[C@H]3C[C@H](O)[C@]12C [^11C—CSar, N-(3α,7α,12α-Trihydroxy-24-oxocholan-24-yl)-N—[^11C]methyl-glycine]
[2]
  distribution of tracer on PET/CT 5 min after start of infusion: still observed in the liver; also recorded: still ^11C—CSar in the liver
  distribution of tracer on PET/CT 25 min after start of infusion: accumulated in the liver and intrahepatic bile ducts
[3]; plasma collected after administration of cholyltaurine (Pig 1)
  fraction unbound: 1
[3]; plasma collected before tracer administration, n=3
  fraction unbound: 0.18 ± 0.02
[4]; Adrenals
  Absorbed dose estimate: 2.88 μGy/MBq
[4]; Bone surface
  Absorbed dose estimate: 2.87 μGy/MBq
[4]; Brain
  Absorbed dose estimate: 1.57 μGy/MBq
[4]; Breasts
  Absorbed dose estimate: 1.66 μGy/MBq
[4]; Gallbladder wall
  Absorbed dose estimate: 59.40 μGy/MBq
[4]; Heart wall
  Absorbed dose estimate: 2.33 μGy/MBq
[4]
  Effective dose: 4.4 μSv/MBq
[4]; listed as 11C-CSar
  Effective dose: 4.40 μSv/MBq
[4]; Kidneys
  Absorbed dose estimate: 2.34 μGy/MBq
[4]; Liver
  Absorbed dose estimate: 10.80 μGy/MBq
[4]; Lower large intestine wall
  Absorbed dose estimate: 3.91 μGy/MBq
[4]; Lungs
  Absorbed dose estimate: 2.06 μGy/MBq
[4]; Muscle
  Absorbed dose estimate: 2.23 μGy/MBq
[4]; Ovaries
  Absorbed dose estimate: 4.97 μGy/MBq
[4]; Pancreas
  Absorbed dose estimate: 3.36 μGy/MBq
[4]; Pig 2, whole-body PET scans
  organs with high accumulation of tracer relative to surrounding tissue: liver, gallbladder, stomach, and small intestines
  radioactivity in other organs, including the urinary bladder: Virtually no radioactivity was detected
[4]; Red marrow
  Absorbed dose estimate: 2.34 μGy/MBq
[4]; Skin
  Absorbed dose estimate: 1.61 μGy/MBq
[4]; Small intestine
  Absorbed dose estimate: 39.30 μGy/MBq
[4]; Spleen
  Absorbed dose estimate: 2.37 μGy/MBq
[4]; Stomach wall
  Absorbed dose estimate: 3.92 μGy/MBq
[4]; Testes
  Absorbed dose estimate: 1.82 μGy/MBq
[4]; Thymus
  Absorbed dose estimate: 1.88 μGy/MBq
[4]; Thyroid
  Absorbed dose estimate: 1.78 μGy/MBq
[4]; Total body
  Absorbed dose estimate: 2.83 μGy/MBq
[4]; Upper large intestine wall
  Absorbed dose estimate: 7.07 μGy/MBq
[4]; Urinary bladder wall
  Absorbed dose estimate: 2.67 μGy/MBq
[4]; Uterus
  Absorbed dose estimate: 4.62 μGy/MBq
[5]; [8]
  decrease of liver tissue TAC with time: significantly slower
  rate of increase of TAC in the choledochus: much slower rate
[5]; pretreatment with cholyltaurine
  maximum value of choledochus TAC relative to that without pretreatment: 2%
[5]; pretreatment with cholyltaurine 286 mg/kg i.v.
  maximum radioactivity concentration of liver tissue TAC compared to studies without cholyltaurine: approximately 40%
[6]
  alterations in chemical or radiochemical purity: no alterations
[7]; Pig 1 and 2, after intravenous tracer
  time to peak of liver TAC: ≤ 3 min
[7]; Pig 1 and 2, intravenous, dynamic PET/CT
  uptake into liver tissue: rapid uptake
[7]; after ^11C—CSar administration
  time of appearance of radioactivity in the intrahepatic bile ducts: approximately one
[7]; after administration of the tracer
  time at which radioactivity in liver tissue and bile ducts increased again (enterohepatic circulation): about 75 min
[7]; after tracer administration
  time to peak radioactivity concentration in the choledochus: 4 to 6 min
[7]; pig, in vivo
  time for liver TAC to decrease to very low concentrations: 30 to 40 min
[7]; relative to appearance in intrahepatic bile ducts
  time of appearance of radioactivity in the choledochus: one minute later
[7]; relative to arterial TAC
  peak radioactivity concentration of liver TAC: comparable to the peak concentration of the arterial TAC

## cholyltaurine [reference compound]
[5]; 286 mg/kg intravenous 50-second infusion before tracer
  effect on hepatic uptake and biliary excretion of ^11C—CSar: markedly inhibited
